The values that follow are results of earlier work, collected in patent US20150174235A1, “VACCINE” (Bionor Immuno AS, priority 2012, published 2015).

This series concerns HIV-specific T-cells. Conditions: for IL-2 production by CD8 T-cells / lytic capacity of polyfunctional HIV specific CD8+ T cells / number of polyfunctional CD4+ T-cells / proliferation of CD4+ T cells / Gag antigen epitopes recognized: IMiD present during in vitro T-cell stimulation; for Gag antigen epitopes recognized: also at lower antigen peptide concentrations; for IFN-γ production by CD8+ T-cells and CD4 T-cells: after antigen stimulation, IMiD present.

As for `Nc1cccc2c1C(=O)N(C1CCC(=O)NC1=O)C2=O` (stereo not drawn) [pomalidomide], the “IL-2 production by CD8 T-cells” value is “increased”, the “lytic capacity of polyfunctional HIV specific CD8+ T cells” value is “enhanced”, the “number of polyfunctional CD4+ T-cells” value was “increased” and the “proliferation of CD4+ T cells” value was “reduced”. In addition, the “Gag antigen epitopes recognized” value is “more”; the “IFN-γ production by CD8+ T-cells and CD4 T-cells” value was “detectable”.
Turning to `Nc1cccc2c1CN(C1CCC(=O)NC1=O)C2=O` (stereo not drawn) [Lenalidomide], the “IL-2 production by CD8 T-cells” value is recorded as “increased”, the “lytic capacity of polyfunctional HIV specific CD8+ T cells” value is listed as “enhanced”, the “number of polyfunctional CD4+ T-cells” value was “increased” and the “proliferation of CD4+ T cells” value was “reduced”. Further, the “Gag antigen epitopes recognized” value is recorded as “more”; the “IFN-γ production by CD8+ T-cells and CD4 T-cells” value is recorded as “detectable”.
